Source: EPA's ToxValDB 9.5

Tests used:
Mus musculus = details: oral
Rattus norvegicus = details: oral
[1] = short-term, duration: 28 days, gavage, F, B6C3F1, IgM antibody-producing cells (SRBC)
[2] = short-term, duration: 28 days, gavage, F, B6C3F1, peritoneal cavity: IL-6 levels (+LPS in vivo) + peritoneal cavity: TNF-alpha levels (+LPS in vitro) + spleen: spleen: relative weight
[3] = short-term, duration: 28 days, gavage, F, B6C3F1, serum lysozyme activity + spleen: splenic CD4-/CD8+ + spleen: splenic CD4+/CD8-
[4] = short-term, duration: 28 days, gavage, F, B6C3F1, spleen (B cells): IL-6 levels (+LPS)
[5] = short-term, duration: 28 days, gavage, F, B6C3F1, thymus: thymic CD4+/CD8+
[6] = short-term, duration: 28 days, gavage, M, B6C3F1, IgM antibody-producing cells (SRBC)
[7] = short-term, duration: 28 days, gavage, M, B6C3F1, spleen: Splenic NK cell activity
[8] = short-term, duration: 28 days, gavage, M, B6C3F1, spleen: splenic CD4-/CD8- + spleen: splenic CD4-/CD8+ + spleen: splenic CD4+/CD8- + spleen: splenic CD4+/CD8+
[9] = subchronic, duration: 30 days, gavage, M, C57BL/6, spleen: spleen: relative weight
[10] = subchronic, duration: 60 days, gavage, M, C57BL/6, % of sub G1 population (splenocytes) + spleen: apoptotic cells (splenocytes) + spleen: viability in murine splenocytes + thymus: apoptotic …
[11] = subchronic, duration: 60 days, gavage, M, C57BL/6, % of sub G1 population (thymocytes) + body weight change + spleen: necrotic cells (splenocytes) + spleen: spleen cellularity + spleen: …
[12] = subchronic, duration: 60 days, gavage, M, C57BL/6, IgM antibody titer (SRBC) + spleen: IL-4 levels
[13] = subchronic, duration: 60 days, gavage, M, C57BL/6, blood serum: IL-1 beta (+LPS in vivo) + blood serum: IL-1 beta levels + blood serum: IL-6 levels + peritoneal cavity: IL-1 beta levels (+LPS…
[14] = subchronic, duration: 60 days, gavage, M, C57BL/6, blood serum: IL-6 levels (+LPS in vivo) + blood serum: TNF-alpha levels (+LPS in vivo) + peritoneal cavity: IL-6 levels (+LPS in vivo) + …
[15] = subchronic, duration: 60 days, gavage, M, C57BL/6, body weight change + food intake from day 60 to 61 + IgE antibody titer (SRBC) + IgG antibody titer (SRBC) + IgG1 antibody titer (SRBC) + …
[16] = subchronic, duration: 60 days, gavage, M, C57BL/6, body weight change + peritoneal cavity: IL-6 levels + peritoneal cavity: IL-6 levels (+LPS in vitro) + peritoneal cavity: TNF-alpha levels…
[17] = subchronic, duration: 60 days, gavage, M, C57BL/6, liver: liver index
[18] = subchronic, duration: 60 days, gavage, M, C57BL/6, peritoneal cavity: IL-1 beta levels
[19] = subchronic, duration: 60 days, gavage, M, C57BL/6, serum corticosterone + spleen: lymphocyte proliferation (LPS) + spleen: spleen B220+ Cells + spleen: spleen CD8+ cells + thymus: thymus CD4…
[20] = subchronic, duration: 60 days, gavage, M, C57BL/6, spleen: lymphocyte proliferation (ConA) + thymus: thymus DN (CD4-/CD8-)
[21] = chronic, duration: 14 weeks, diet, M, Crl:CD(SD) BR, non-segmented neutrophils (N-SEG)
[22] = reproduction developmental, gavage, M/F, Sprague-Dawley, generation: F1, F1: IL-1beta mRNA level relative change: cortex (PND 0) + F1: IL-1beta mRNA level relative change: cortex (PND 21) + F1: IL-1beta mRNA level…
[23] = reproduction developmental, gavage, M/F, Sprague-Dawley, generation: F1, F1: TNFalpha mRNA level relative change: cortex (PND 0) + F1: TNFalpha mRNA level relative change: cortex (PND 21)
[24] = short-term, duration: 28 days, diet, F, Sprague-Dawley, spleen: spleen: relative weight + thymus: apoptotic cells in the thymic cortex + thymus: thymus: absolute weight + Total serum IgM level
[25] = short-term, duration: 28 days, diet, M, Sprague-Dawley, spleen: spleen: absolute weight + thymus: thymus: absolute weight
[26] = short-term, duration: 28 days, diet, M, Sprague-Dawley, thymus: apoptotic cells in the thymic cortex + thymus: apoptotic cells in the thymic medulla

SMILES: O=S(=O)(O)C(F)(F)C(F)(F)C(F)(F)C(F)(F)C(F)(F)C(F)(F)C(F)(F)C(F)(F)F [Perfluorooctanesulfonic acid]
- NOEL (Mus musculus; short-term, duration: 28 days, diet, M, B6C3F1, haemagglutination + IgG antibody level (SRBC 1:200) + IgM antibody-secreting cells (SRBC) + IgM antibody level (SRBC 1:200) + IgM antibody …): 0.000156%
- NOEL (Mus musculus; short-term, duration: 28 days, diet, M, C57BL/6, liver: IFN-gamma levels + liver: IFN-gamma levels (+Con A in vivo) + liver: IL-4 levels (+Con A in vivo) + liver: TNF-alpha levels + liver: …): 0.0001%
- NOEL (Mus musculus; short-term, duration: 28 days, gavage, F, B6C3F1, IL-4 levels (+PMA) + spleen (CD4+ T cells): IL-5 levels (+PMA) + spleen (CD4+ T cells): IL-6 levels (+anti-CD3) + spleen (CD4+ T cells): IL-…): 0.0331 mg/kg-day
- LOEL (TAD) (Mus musculus; [1]): 0.5 mg/kg-day
- NOEL (TAD) (Mus musculus; [1]): 0.1 mg/kg-day
- LOEL (Mus musculus; short-term, duration: 28 days, gavage, F, B6C3F1, blood serum: IL-6 levels (+LPS in vivo) + blood serum: TNF-alpha levels (+LPS in vivo)): 0.0331 mg/kg-day
- NOEL (Mus musculus; short-term, duration: 28 days, gavage, F, B6C3F1, eosinophils + lymphocytes + monocytes + neutrophils + platelet count + RBC + spleen: cells expressing CD19-/CD21+ + spleen: cells expressing…): 0.166 mg/kg-day
- NOEL (Mus musculus; short-term, duration: 28 days, gavage, F, B6C3F1, peritoneal cavity: IL-6 levels (+LPS in vitro) + peritoneal cavity: IL-6 levels (+LPS in vivo) + peritoneal cavity: TNF-alpha levels (+LPS …): 9.93 mg/kg-day
- LOEL (Mus musculus; [2]): 9.93 mg/kg-day
- NOEL (Mus musculus; [2]): 0.0993 mg/kg-day
- LOEL (TAD) (Mus musculus; [3]): 0.1 mg/kg-day
- NOEL (TAD) (Mus musculus; [3]): 0.05 mg/kg-day
- LOEL (Mus musculus; [4]): 0.0331 mg/kg-day
- NOEL (Mus musculus; [4]): 0.00331 mg/kg-day
- LOEL (Mus musculus; short-term, duration: 28 days, gavage, F, B6C3F1, spleen (B cells): IL-6 levels (+anti-CD40)): 0.00331 mg/kg-day
- NOEL (Mus musculus; short-term, duration: 28 days, gavage, F, B6C3F1, spleen: IL-6 secreting cells (# splenocytes)): 0.0331 mg/kg-day
- LOEL (Mus musculus; short-term, duration: 28 days, gavage, F, B6C3F1, spleen: IL-6 secreting cells (# splenocytes) + spleen: IL-6 secreting cells (% splenocytes)): 0.0993 mg/kg-day
- NOEL (TAD) (Mus musculus; short-term, duration: 28 days, gavage, F, B6C3F1, spleen: lymphocyte proliferation (ConA) + spleen: lymphocyte proliferation (LPS) + spleen: spleen cellularity + spleen: spleen: relative …): 5 mg/kg-day
- LOEL (TAD) (Mus musculus; [5]): 1 mg/kg-day
- NOEL (TAD) (Mus musculus; [5]): 0.5 mg/kg-day
- LOEL (TAD) (Mus musculus; [6]): 0.05 mg/kg-day
- NOEL (TAD) (Mus musculus; [6]): 0.005 mg/kg-day
- NOEL (TAD) (Mus musculus; short-term, duration: 28 days, gavage, M, B6C3F1, serum lysozyme activity + spleen: lymphocyte proliferation (ConA) + spleen: lymphocyte proliferation (LPS) + spleen: spleen cellularity + …): 5 mg/kg-day
- LOEL (TAD) (Mus musculus; [7]): 0.5 mg/kg-day
- NOEL (TAD) (Mus musculus; [7]): 0.1 mg/kg-day
- LOEL (TAD) (Mus musculus; [8]): 0.1 mg/kg-day
- NOEL (TAD) (Mus musculus; [8]): 0.05 mg/kg-day
- LOEL (TAD) (Mus musculus; [9]): 300 mg/kg-day
- NOEL (TAD) (Mus musculus; [9]): 150 mg/kg-day
- LOEL (Mus musculus; [10]): 0.0833 mg/kg-day
- NOEL (Mus musculus; [10]): 0.0167 mg/kg-day
- LOEL (Mus musculus; [11]): 0.833 mg/kg-day
- NOEL (Mus musculus; [11]): 0.0833 mg/kg-day
- NOEL (Mus musculus; subchronic, duration: 60 days, gavage, M, C57BL/6, DTH response + IgG2a antibody titer (SRBC) + kidney: kidney index + serum corticosterone): 0.833 mg/kg-day
- LOEL (Mus musculus; [12]): 0.0833 mg/kg-day
- NOEL (Mus musculus; [12]): 0.0167 mg/kg-day
- LOEL (Mus musculus; subchronic, duration: 60 days, gavage, M, C57BL/6, IgM antibody-secreting cells (SRBC) + Splenic NK cell activity): 0.0833 mg/kg-day
- NOEL (Mus musculus; subchronic, duration: 60 days, gavage, M, C57BL/6, IgM antibody-secreting cells (SRBC) + spleen: spleen DP (CD4+/CD8+) + Splenic NK cell activity): 0.00833 mg/kg-day
- LOEL (Mus musculus; [13]): 0.833 mg/kg-day
- NOEL (Mus musculus; [13]): 0.417 mg/kg-day
- LOEL (Mus musculus; [14]): 2.08 mg/kg-day
- NOEL (Mus musculus; [14]): 0.833 mg/kg-day
- NOEL (Mus musculus; subchronic, duration: 60 days, gavage, M, C57BL/6, blood serum: TNF-alpha levels): 2.08 mg/kg-day
- LOEL (Mus musculus; [15]): 0.833 mg/kg-day
- NOEL (Mus musculus; [15]): 0.417 mg/kg-day
- LOEL (Mus musculus; [16]): 0.417 mg/kg-day
- NOEL (Mus musculus; [16]): 0.0833 mg/kg-day
- LOEL (Mus musculus; [17]): 0.417 mg/kg-day
- NOEL (Mus musculus; [17]): 0.0833 mg/kg-day
- LOEL (Mus musculus; subchronic, duration: 60 days, gavage, M, C57BL/6, peritoneal cavity macrophages): 0.0167 mg/kg-day
- NOEL (Mus musculus; subchronic, duration: 60 days, gavage, M, C57BL/6, peritoneal cavity macrophages + spleen: IL-1 beta mRNA): 0.0083 mg/kg-day
- LOEL (Mus musculus; [18]): 0.0833 mg/kg-day
- NOEL (Mus musculus; [18]): 0.0167 mg/kg-day
- LOEL (Mus musculus; [19]): 0.833 mg/kg-day
- NOEL (Mus musculus; [19]): 0.417 mg/kg-day
- LOEL (Mus musculus; [20]): 2.08 mg/kg-day
- NOEL (Mus musculus; [20]): 0.833 mg/kg-day
- LOEL (Mus musculus; subchronic, duration: 60 days, gavage, M, C57BL/6, spleen: spleen CD4+ cells + spleen: spleen cellularity + spleen: spleen DN (CD4-/CD8-) + spleen: spleen DP (CD4+/CD8+) + spleen: spleen: …): 0.417 mg/kg-day
- NOEL (Mus musculus; subchronic, duration: 60 days, gavage, M, C57BL/6, spleen: spleen CD4+ cells + spleen: spleen cellularity + spleen: spleen DN (CD4-/CD8-) + spleen: spleen: relative weight + thymus: thymus …): 0.0833 mg/kg-day
- NOEL (Rattus norvegicus; chronic, duration: 14 weeks, diet, F, Crl:CD(SD) BR, non-segmented neutrophils (N-SEG)): 1.56 mg/kg-day
- LOEL (Rattus norvegicus; [21]): 1.33 mg/kg-day
- NOEL (Rattus norvegicus; [21]): 0.34 mg/kg-day
- NOEL (Rattus norvegicus; chronic, duration: 104 weeks, diet, F, Crl:CD(SD) BR, blood: basophils + blood: eosinophils + blood: monocytes + blood: white blood cell count (WBC) + spleen: spleen: absolute weight (53 weeks…): 1.56 mg/kg-day
- LOEL (Rattus norvegicus; chronic, duration: 104 weeks, diet, F, Crl:CD(SD) BR, blood: lymphocytes + blood: segmented neutrophils): 0.039 mg/kg-day
- NOEL (Rattus norvegicus; chronic, duration: 104 weeks, diet, F, Crl:CD(SD) BR, spleen: spleen: absolute weight (14 weeks)): 0.39 mg/kg-day
- LOEL (Rattus norvegicus; chronic, duration: 104 weeks, diet, F, Crl:CD(SD) BR, spleen: spleen: absolute weight (14 weeks) + spleen: spleen: relative weight (53 weeks)): 1.56 mg/kg-day
- NOEL (Rattus norvegicus; chronic, duration: 104 weeks, diet, M, Crl:CD(SD) BR, blood: basophils + blood: eosinophils + blood: monocytes + blood: white blood cell count (WBC) + spleen: spleen: absolute weight (14 weeks…): 1.56 mg/kg-day
- LOEL (Rattus norvegicus; chronic, duration: 104 weeks, diet, M, Crl:CD(SD) BR, blood: lymphocytes + blood: segmented neutrophils): 0.039 mg/kg-day
- LOEL (Rattus norvegicus; chronic, duration: 104 weeks, diet, M, Crl:CD(SD) BR, spleen: spleen: absolute weight (53 weeks) + spleen: spleen: relative weight (53 weeks)): 1.56 mg/kg-day
- LOEL (Rattus norvegicus; [22]): 0.6 mg/kg-day
- NOEL (Rattus norvegicus; [22]): 0.1 mg/kg-day
- LOEL (Rattus norvegicus; reproduction developmental, gavage, M/F, Sprague-Dawley, generation: F1, F1: IL-1beta mRNA level relative change: hippocampus (PND 0) + F1: TNFalpha mRNA level relative change: hippocampus (PND 0)): 0.1 mg/kg-day
- LOEL (Rattus norvegicus; [23]): 2 mg/kg-day
- NOEL (Rattus norvegicus; [23]): 0.6 mg/kg-day
- NOEL (Rattus norvegicus; short-term, duration: 28 days, diet, F, Sprague-Dawley, blood: blood CD3+ cells + blood: blood CD3+CD4+ cells + blood: blood CD3+CD8+ cells + blood: blood CD45RA+ cells + IgG antibody titer (KLH…): 100 ppm
- LOEL (Rattus norvegicus; [24]): 100 ppm
- NOEL (Rattus norvegicus; [24]): 50 ppm
- LOEL (Rattus norvegicus; short-term, duration: 28 days, diet, M, Sprague-Dawley, Total serum IgG1 level): 2 ppm
- NOEL (Rattus norvegicus; short-term, duration: 28 days, diet, M, Sprague-Dawley, blood CD3+ cells + blood: blood CD3+ cells + blood: blood CD3+CD4+ cells + blood: blood CD3+CD8+ cells + blood: blood CD45RA+ cells + IgG …): 100 ppm
- LOEL (Rattus norvegicus; [25]): 100 ppm
- NOEL (Rattus norvegicus; [25]): 50 ppm
- LOEL (Rattus norvegicus; [26]): 50 ppm
- NOEL (Rattus norvegicus; [26]): 20 ppm
